Values joined by “and” are separate entries in the source; they are usually repeats but may differ in a detail not shown here. Identical values can stand only once. Like-named read-outs stand apart in the source and are kept apart here.
Key:
HCoV‐229E = assay: microbe, parasite or virus in culture; type: cell-based; settings: n = 1; for inhibition at 10 µM: Human coronavirus 229E, Huh-7, read-out: Protective effects HCoV-229E %
Huh7 cells = settings: n = 1
[1] = at 10 μM, compared with vehicle control, Huh7 cells
[2] = at 10 μM, compared with vehicle control
[3] = tested at 1 μM due to low solubility in DMSO

| Molecule | Protective effects HCoV-229E % (HCoV‐229E; [1]) | Cytotoxicity to the host Huh7 cells % (Huh7 cells; [2]) | inhibition at 10 µM (HCoV‐229E; [1]) | Protective effects HCoV-229E % (HCoV‐229E; [3]) | Cytotoxicity to the host Huh7 cells % (Huh7 cells; [3]) |
| --- | --- | --- | --- | --- | --- |
| COc1cc2c(cc1OC)[C@@]1(Cc3ccc4c(c3[C@@H]1O)OCO4)N(C)CC2 [Compound 38, (−)‐fumaricine] | — (Not active (insignificant protective effects below 20%)) | — (Non-toxic (insignificant cytotoxic effects, below 20%)) |  |  |  |
| COc1cc2c(cc1OC)C1Cc3cc(OC)c(OC)cc3[C@H](C2)N1C [Compound 23, argemonine] | — (Not active (insignificant protective effects below 20%)) | — (Non-toxic (insignificant cytotoxic effects, below 20%)) |  |  |  |
| COc1ccc2c(c1O)-c1c(OC)c(OC)cc3c1[C@H](C2)NCC3 [Compound 57, norisocoridine] | — (Not active (insignificant protective effects below 20%)) | — (Non-toxic (insignificant cytotoxic effects, below 20%)) |  |  |  |
| COc1cc2c(cc1OC)C(=O)Cc1ccc3c(c1CN(C)CC2)OCO3 [Compound 45, cryptopine] | — (Not active (insignificant protective effects below 20%)) | — (Non-toxic (insignificant cytotoxic effects, below 20%)) |  |  |  |
| CN1CCC2=CC[C@H]3OC(=O)c4cc5c(cc4[C@H]3[C@@H]21)OCO5 [Compound 11, masonine] | — (Not active (insignificant protective effects below 20%)) | — (Non-toxic (insignificant cytotoxic effects, below 20%)) |  |  |  |
| O[C@H]1C=C[C@@]23CCN(Cc4cc5c(cc42)OCO5)[C@@H]3C1 [Compound 14, (−)‐crinine] | — (Not active (insignificant protective effects below 20%)) | — (Non-toxic (insignificant cytotoxic effects, below 20%)) |  |  |  |
| CO[C@@H]1C=C[C@@]23c4cc5c(cc4CN(C[C@@H]2O)[C@H]3C1)OCO5 [Compound 3, (+)‐haemanthamine] |  | 50% | 50% |  |  |
| O[C@@H]1Cc2cc3c(cc2[C@@H]2NCc4c(ccc5c4OCO5)[C@H]12)OCO3 [Compound 48, norchelidonine] |  | 50% | 50% |  |  |
| COc1cc2c(cc1OC)[C@H]1[C@H]3C(=CC[C@H]1OC2=O)CCN3C [Compound 10, homolycorine] |  | — (Non-toxic (insignificant cytotoxic effects, below 20%)) | 40% |  |  |
| COc1ccc2c(c1OC)CN(C)CCc1cc3c(cc1C(=O)C2)OCO3 [Compound 29, Allocryptopine] |  | — (Non-toxic (insignificant cytotoxic effects, below 20%)) | < 20% |  |  |
| COc1ccc2c(c1OC)[C@@H]1Cc3cc4c(cc3[C@H](C2)N1C)OCO4 [Compound 36, O‐methylneocarychine] | — (Not active (insignificant protective effects below 20%)) | — (Non-toxic (insignificant cytotoxic effects, below 20%)) |  |  |  |
| CN1CCc2cc3c(cc2[C@H]1[C@@H]1OC(=O)c2c1ccc1c2OCO1)OCO3 [Compound 46, (+)‐bicuculline] | — (Not active (insignificant protective effects below 20%)) | — (Non-toxic (insignificant cytotoxic effects, below 20%)) |  |  |  |
| COc1ccc2c(c1OC)C(=O)O[C@@H]2[C@H]1c2c(cc3c(c2OC)OCO3)CCN1C [Compound 55, (−)‐narcotine] |  | 20% | < 20% |  |  |
| (−)‐fumarophycine hydrochloride [Compound 37] | — (Not active (insignificant protective effects below 20%)) | — (Non-toxic (insignificant cytotoxic effects, below 20%)) |  |  |  |
| COc1ccc(CC2c3cc4c(cc3CCN2C)OCO4)c(C=O)c1OC (stereo not drawn) [Compound 30, (+)‐canadaline] | — (Not active (insignificant protective effects below 20%)) | — (Non-toxic (insignificant cytotoxic effects, below 20%)) |  |  |  |
| COc1cc2c(cc1OC)-c1c(OC)c(OC)cc3c1[C@H](C2)N(C)CC3 [Compound 47, glaucine] |  | — (Non-toxic (insignificant cytotoxic effects, below 20%)) | < 20% |  |  |
| (−)‐corypalmine [Compound 25] | — (Not active (insignificant protective effects below 20%)) | — (Non-toxic (insignificant cytotoxic effects, below 20%)) |  |  |  |
| COc1cc2c(cc1OC)C1Cc3ccc4c(c3CN1CC2)OCO4 (stereo not drawn) [Compound 43, (−)‐sinactine] | — (Not active (insignificant protective effects below 20%)) | — (Non-toxic (insignificant cytotoxic effects, below 20%)) |  |  |  |
| COc1cc2c(cc1Oc1c3c(cc(OC)c1OC)CCN(C)C3)C(Cc1ccc(O)cc1)N(C)CC2 (stereo not drawn) [Compound 20, (−)‐muraricine] | 50% | — (Non-toxic (insignificant cytotoxic effects, below 20%)) |  |  |  |

| Molecule | Protective effects HCoV-229E % (HCoV‐229E; [1]) | Cytotoxicity to the host Huh7 cells % (Huh7 cells; [2]) | inhibition at 10 µM (HCoV‐229E; [1]) | Protective effects HCoV-229E % (HCoV‐229E; [3]) | Cytotoxicity to the host Huh7 cells % (Huh7 cells; [3]) |
| --- | --- | --- | --- | --- | --- |
| COC1=C[C@]23CCN(C)[C@H](Cc4ccc(OC)c(O)c42)C3=CC1=O [Compound 59, (−)‐salutaridine] | — (Not active (insignificant protective effects below 20%)) | — (Non-toxic (insignificant cytotoxic effects, below 20%)) |  |  |  |
| COc1cc2c(cc1O)[C@]1(Cc3ccc4c(c3C1=O)OCO4)N(C)CC2 [Compound 42, (+)‐parfumine] | — (Not active (insignificant protective effects below 20%)) | — (Non-toxic (insignificant cytotoxic effects, below 20%)) |  |  |  |
| COC1=C[C@@]23CCN(C)[C@@H](Cc4cc(O)c(OC)cc42)C3=CC1=O [Compound 60, (−)‐pallidine] | — (Not active (insignificant protective effects below 20%)) | — (Non-toxic (insignificant cytotoxic effects, below 20%)) |  |  |  |
| (−)‐undulatine [Compound 13] | — (Not active (insignificant protective effects below 20%)) | — (Non-toxic (insignificant cytotoxic effects, below 20%)) |  |  |  |
| COc1cc2c(cc1OC)C1(Cc3ccc4c(c3C1OC(C)=O)OCO4)N(C)CC2 (stereo not drawn) [Compound 39, (−)‐O‐methylfumarophycine] | — (Not active (insignificant protective effects below 20%)) | — (Non-toxic (insignificant cytotoxic effects, below 20%)) |  |  |  |
| COc1cc2c(cc1OC)-c1c(OC)c(OC)cc3ccnc(c13)C2=O [Compound 61, oxoglaucine] |  | — (Non-toxic (insignificant cytotoxic effects, below 20%)) | < 20% |  |  |
| CN1Cc2c(ccc3c2OCO3)[C@@H]2[C@H]1c1cc3c(cc1C[C@@H]2O)OCO3 [Compound 50, chelidonine] |  | 35% and 35%–40% | < 20% |  |  |
| COc1cc2c(cc1O)[C@@H]1Cc3cc4c(cc3[C@H](C2)N1C)OCO4 [Compound 34, (−)‐caryachine] | — (Not active (insignificant protective effects below 20%)) | — (Non-toxic (insignificant cytotoxic effects, below 20%)) |  |  |  |
| CN1CCc2cc3c(cc2[C@]12Cc1ccc4c(c1C2=O)OCO4)OCO3 [Compound 41, (+)‐fumariline] | — (Not active (insignificant protective effects below 20%)) | — (Non-toxic (insignificant cytotoxic effects, below 20%)) |  |  |  |
| (±)‐O‐methylfumarofine [Compound 44] | — (Not active (insignificant protective effects below 20%)) | — (Non-toxic (insignificant cytotoxic effects, below 20%)) |  |  |  |
| O[C@H]1C=C[C@@]23c4cc5c(cc4CN(C[C@@H]2O)[C@H]3C1)OCO5 [Compound 2, (+)‐hamayne] | — (Not active (insignificant protective effects below 20%)) | — (Non-toxic (insignificant cytotoxic effects, below 20%)) |  |  |  |
| CCOC1c2c(ccc3c2OCO3)-c2ccc3cc4c(cc3c2N1C)OCO4 (stereo not drawn) [Compound 51, 6‐ethoxydihydrosanguinarine] | — (Not active (insignificant protective effects below 20%)) | 90% and > 80% |  |  |  |
| COc1cc2c(cc1O)C[C@@H]1NCCc3cc(OC)c(OC)c-2c31 [Compound 58, (+)‐laurotetanine] | — (Not active (insignificant protective effects below 20%)) | — (Non-toxic (insignificant cytotoxic effects, below 20%)) |  |  |  |
| COc1cc2c(cc1OC)[C@@H](O)O[C@@H]1CC=C3CCN(C)[C@H]3[C@H]21 [Compound 7, lycorenine] | — (Not active (insignificant protective effects below 20%)) | 20% |  |  |  |
| COc1cc2c(cc1O)C1(Cc3ccc4c(c3C1O)OCO4)N(C)CC2 (stereo not drawn) [Compound 40, (−)‐fumaritine] |  |  |  | — (Not active (insignificant protective effects below 20%)) | — (Non-toxic (insignificant cytotoxic effects, below 20%)) |
| COc1cc2c(cc1O)[C@@H]1Cc3ccc(OC)c(OC)c3CN1CC2 [Compound 32, tetrahydrocolumbamine] | — (Not active (insignificant protective effects below 20%)) | — (Non-toxic (insignificant cytotoxic effects, below 20%)) |  |  |  |
| CCOC1c2c(ccc(OC)c2OC)-c2ccc3cc4c(cc3c2N1C)OCO4 (stereo not drawn) [Compound 52, 6‐ethoxydihydrochelerytrine] | — (Not active (insignificant protective effects below 20%)) | 80% and > 80% |  |  |  |
| COc1cc2c(cc1O)[C@@H]1Cc3ccc(OC)c(O)c3CN1CC2 [Compound 33, (−)‐scoulerine] | — (Not active (insignificant protective effects below 20%)) | 40% and 35%–40% |  |  |  |
| (+)‐thalictricavine [Compound 27] | — (Not active (insignificant protective effects below 20%)) |  |  |  |  |

Source: article PMC12497685, “Anticoronavirus Isoquinoline Alkaloids: Unraveling the Secrets of Their Structure–Activity Relationship” (Influenza and Other Respiratory Viruses, 2025)
